Laboratory results taken from publication doi:10.1101/2021.10.07.463234v2 (biorxiv, 2021).
Structures can show the parent of a compound that is named as a salt.

Target: SARS-CoV-2 Mac1 (Severe acute respiratory syndrome coronavirus 2, UniProt P0DTD1)
Experiment: biochemical
Conditions: for inhibition at 100 µM: read-out: %inhibition; for %inhibition: 100 µM, inhibitor

Row | SMILES | inhibition at 100 µM [%] | %inhibition [%]
1 | COCC1=C(C(=O)OC(C)OC(=O)OC(C)C)N2C(=O)[C@@H](NC(=O)/C(=N\OC)c3csc(N)n3)[C@H]2SC1 (some centres unmarked) [Cefpodoxime proxetil] | 13.2 | –
2 | N=C(N)NS(=O)(=O)c1ccc(N)cc1 [Sulfaguanidine] | 8.72 | –
3 | Cc1c(C(=O)NN2CCCCC2)nn(-c2ccc(Cl)cc2Cl)c1-c1ccc(Cl)cc1 [Rimonabant] | 3.4 | –
4 | CO/N=C(\C(=O)N[C@@H]1C(=O)N2C(C(=O)O)=C(Cn3ccc(=N)n3CCO)CS[C@H]12)c1csc(N)n1 [Cefoselis Sulfate] | 22.8 | –
5 | C[C@@H](c1ncncc1F)[C@](O)(Cn1cncn1)c1ccc(F)cc1F [Voriconazole] | 0 | –
6 | CNC1CCCN(c2c(F)cc3c(=O)c(C(=O)O)cn(C4CC4)c3c2OC)C1 (centres unmarked) [Balofloxacin] | 0 | –
7 | N=C(N)NC(=N)NCCc1ccccc1 [Phenformin HCl] | 30.5 | –
8 | O=C1NC(=O)[C@@H](c2cn3c4c(cccc24)CCC3)[C@@H]1c1c[nH]c2ccccc12 [Tivantinib (ARQ 197)] | 1.02 | –
9 | CCN(CC)C(=O)N1CCN(C)CC1 [Diethylcarbamazine citrate] | 0 | –
10 | CC1(C)O[C@@H]2C[C@H]3[C@@H]4CCC5=CC(=O)C=C[C@]5(C)[C@H]4[C@@H](O)C[C@]3(C)[C@]2(C(=O)CO)O1 [Desonide] | 17.1 | –
11 | Nc1ccc(S(=O)(=O)Nc2cncc(Cl)n2)cc1 [Sulfalozine sodium] | 0 | –
12 | CCC1(c2ccc(N)cc2)CCC(=O)NC1=O (centres unmarked) [Aminoglutethimide] | 17.3 | –
13 | Cc1[nH]c(=O)c(C#N)cc1-c1ccncc1 [Milrinone] | 0 | –
14 | CN1CCC[C@H]1c1cccnc1 [Nicotine Ditartrate] | 0 | –
15 | Oc1cc(Cl)ccc1Oc1ccc(Cl)cc1Cl [Triclosan] | 0 | –
16 | CC(=O)OCC1=C(C(=O)O)N2C(=O)[C@@H](NC(=O)CSc3ccncc3)[C@H]2SC1 [Cephapirin Sodium] | 0 | –

Row | SMILES | inhibition at 100 µM [%] | %inhibition [%]
17 | Cc1c(-c2ccnn2C)cc(C(=O)NCc2ccc(S(C)(=O)=O)cn2)c(=O)n1-c1cccc(C(F)(F)F)c1 [Alvelestat (AZD9668)] | 0 | –
18 | CN(C)CCc1c[nH]c2ccc(C[C@H]3COC(=O)N3)cc12 [Zolmitriptan] | 0 | –
19 | N/N=c1\[nH][nH]/c(=N\N)c2ccccc12 [Dihydralazine sulphate] | 45.1 | –
20 | Nc1ccc(C(=O)NCC(=O)O)cc1 [Sodium 4-aminohippurate Hydrate] | 0 | –
21 | CO/N=C(\C(=O)N[C@@H]1C(=O)N2C(C(=O)O)=C(CSC(=O)c3ccco3)CS[C@H]12)c1csc(N)n1 [Ceftiofur HCl] | – | 20.8
22 | CC#CCn1c(N2CCC[C@@H](N)C2)nc2c1c(=O)n(Cc1nc(C)c3ccccc3n1)c(=O)n2C [Linagliptin] | 23.9 | –
23 | CNC[C@@H](O)c1ccc(O)c(O)c1 [L-Adrenaline] | 31.6 | –
24 | CCCC(C(=O)OCCN(CC)CC)(c1ccccc1)c1ccccc1 [Proadifen HCl] | 15.2 | –
25 | O=c1[nH]c(=O)n(C2CCCO2)cc1F (centres unmarked) [Tegafur (FT-207, NSC 148958)] | 0 | –
26 | COc1cc2c(cc1OC)CC(=O)N(CCCN(C)C[C@H]1Cc3cc(OC)c(OC)cc31)CC2 [Ivabradine HCl] | 0 | –
27 | CCOC(=O)Nc1ccc(NCc2ccc(F)cc2)cc1N [Retigabine] | – | 0
28 | CN(C)CCC=C1c2ccccc2CCc2ccccc21 [Amitriptyline HCl] | 0 | –
29 | C=CCc1cc(OC)c(O)c(C(=O)NCCO)c1 [Alibendol] | 15.2 | –
30 | CC(=O)NC[C@H]1CN(c2ccc(N3CCOCC3)c(F)c2)C(=O)O1 [Linezolid] | 0 | –
31 | C[C@H](CCC(=O)O)[C@H]1CC[C@H]2[C@@H]3C(=O)C[C@@H]4CC(=O)CC[C@]4(C)[C@H]3CC(=O)[C@]12C [Dehydrocholic acid] | 0 | –
32 | CC1=C(CC(=O)O)c2cc(F)ccc2/C1=C\c1ccc([S+](C)[O-])cc1 (centres unmarked) [Sulindac] | 4.16 | –
